Data reported in patent publication US20120122860A1, “SOLID FORMS OF SULFONAMIDES AND AMINO ACIDS” (Plexxikon, Inc., priority 2009, published 2012).

Columns and labels:
Btk = Btk (Homo sapiens, UniProt Q06187); assay: Kinase activity assay, Btk
Fms = Fms (Homo sapiens, UniProt P07333); assay: Kinase activity assay, Fms
Kdr = Kdr (Homo sapiens, UniProt P35968); assay: Kinase activity assay, Kdr
Kit = Kit (Homo sapiens, UniProt P10721); assay: Kinase activity assay, Kit
Src = Src (Homo sapiens, UniProt P12931); assay: Kinase activity assay, Src
B-Raf V600E = B-Raf V600E (Homo sapiens, UniProt P15056, V600E); assay: Kinase activity assay, B-Raf V600E; format: biochemical; conditions: read-out: activity toward kinase B-Raf V600E, IC50
C-Raf = C-Raf (Homo sapiens, UniProt P04049); assay: Kinase activity assay, C-Raf

Sequence of Kdr (P35968 20-1356): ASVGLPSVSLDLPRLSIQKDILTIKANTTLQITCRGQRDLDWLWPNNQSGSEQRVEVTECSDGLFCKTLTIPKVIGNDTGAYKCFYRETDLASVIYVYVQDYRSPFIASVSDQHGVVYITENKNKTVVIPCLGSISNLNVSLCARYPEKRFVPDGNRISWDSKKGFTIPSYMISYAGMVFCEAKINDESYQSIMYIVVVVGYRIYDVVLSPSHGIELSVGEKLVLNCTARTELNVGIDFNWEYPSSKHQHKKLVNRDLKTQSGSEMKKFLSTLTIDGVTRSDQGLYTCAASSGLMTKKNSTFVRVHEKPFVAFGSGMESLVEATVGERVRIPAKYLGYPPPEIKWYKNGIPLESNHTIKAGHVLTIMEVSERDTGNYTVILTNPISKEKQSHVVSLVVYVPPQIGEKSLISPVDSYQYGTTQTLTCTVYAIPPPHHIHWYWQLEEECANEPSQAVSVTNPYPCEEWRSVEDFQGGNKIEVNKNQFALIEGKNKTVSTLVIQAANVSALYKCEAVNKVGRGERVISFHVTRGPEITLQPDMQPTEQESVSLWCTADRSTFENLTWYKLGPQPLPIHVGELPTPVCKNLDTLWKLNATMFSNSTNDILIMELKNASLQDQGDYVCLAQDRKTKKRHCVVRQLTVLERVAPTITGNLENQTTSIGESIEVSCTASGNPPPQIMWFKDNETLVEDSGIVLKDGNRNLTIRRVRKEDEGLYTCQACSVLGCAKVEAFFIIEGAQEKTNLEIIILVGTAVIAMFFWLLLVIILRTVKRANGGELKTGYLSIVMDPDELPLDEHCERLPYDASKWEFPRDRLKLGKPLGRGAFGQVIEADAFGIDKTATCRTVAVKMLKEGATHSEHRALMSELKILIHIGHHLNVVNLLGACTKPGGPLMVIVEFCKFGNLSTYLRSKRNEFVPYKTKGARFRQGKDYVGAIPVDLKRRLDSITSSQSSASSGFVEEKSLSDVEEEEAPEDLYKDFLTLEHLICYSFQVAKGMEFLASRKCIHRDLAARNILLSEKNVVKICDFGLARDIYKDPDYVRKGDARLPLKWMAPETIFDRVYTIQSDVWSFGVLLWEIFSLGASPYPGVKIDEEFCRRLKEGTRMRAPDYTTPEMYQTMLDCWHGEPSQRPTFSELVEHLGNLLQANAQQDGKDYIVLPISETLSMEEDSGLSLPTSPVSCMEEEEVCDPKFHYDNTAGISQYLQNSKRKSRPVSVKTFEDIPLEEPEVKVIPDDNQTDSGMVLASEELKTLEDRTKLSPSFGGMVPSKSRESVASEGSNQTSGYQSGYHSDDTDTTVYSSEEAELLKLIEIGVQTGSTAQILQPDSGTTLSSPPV
Sequence of Btk (Q06187 whole entry): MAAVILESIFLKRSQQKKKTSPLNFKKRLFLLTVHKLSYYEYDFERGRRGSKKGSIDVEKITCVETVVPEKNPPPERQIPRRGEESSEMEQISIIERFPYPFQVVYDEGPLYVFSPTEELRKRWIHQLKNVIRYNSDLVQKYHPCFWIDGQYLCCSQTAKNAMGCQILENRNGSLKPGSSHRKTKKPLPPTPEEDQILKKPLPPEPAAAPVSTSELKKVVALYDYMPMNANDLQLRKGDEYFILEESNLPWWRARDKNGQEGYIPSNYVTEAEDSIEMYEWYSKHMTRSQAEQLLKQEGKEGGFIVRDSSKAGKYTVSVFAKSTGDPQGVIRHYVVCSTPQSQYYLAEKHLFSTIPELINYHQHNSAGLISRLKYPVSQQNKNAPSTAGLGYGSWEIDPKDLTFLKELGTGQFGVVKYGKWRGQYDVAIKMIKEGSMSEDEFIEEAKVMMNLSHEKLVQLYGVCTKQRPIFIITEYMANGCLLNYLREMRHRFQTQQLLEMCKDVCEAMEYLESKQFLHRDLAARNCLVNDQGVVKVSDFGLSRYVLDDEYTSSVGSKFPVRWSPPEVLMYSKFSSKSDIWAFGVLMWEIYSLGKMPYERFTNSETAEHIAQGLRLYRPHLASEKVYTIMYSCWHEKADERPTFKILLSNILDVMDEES
Sequence of Kit (P10721 26-976): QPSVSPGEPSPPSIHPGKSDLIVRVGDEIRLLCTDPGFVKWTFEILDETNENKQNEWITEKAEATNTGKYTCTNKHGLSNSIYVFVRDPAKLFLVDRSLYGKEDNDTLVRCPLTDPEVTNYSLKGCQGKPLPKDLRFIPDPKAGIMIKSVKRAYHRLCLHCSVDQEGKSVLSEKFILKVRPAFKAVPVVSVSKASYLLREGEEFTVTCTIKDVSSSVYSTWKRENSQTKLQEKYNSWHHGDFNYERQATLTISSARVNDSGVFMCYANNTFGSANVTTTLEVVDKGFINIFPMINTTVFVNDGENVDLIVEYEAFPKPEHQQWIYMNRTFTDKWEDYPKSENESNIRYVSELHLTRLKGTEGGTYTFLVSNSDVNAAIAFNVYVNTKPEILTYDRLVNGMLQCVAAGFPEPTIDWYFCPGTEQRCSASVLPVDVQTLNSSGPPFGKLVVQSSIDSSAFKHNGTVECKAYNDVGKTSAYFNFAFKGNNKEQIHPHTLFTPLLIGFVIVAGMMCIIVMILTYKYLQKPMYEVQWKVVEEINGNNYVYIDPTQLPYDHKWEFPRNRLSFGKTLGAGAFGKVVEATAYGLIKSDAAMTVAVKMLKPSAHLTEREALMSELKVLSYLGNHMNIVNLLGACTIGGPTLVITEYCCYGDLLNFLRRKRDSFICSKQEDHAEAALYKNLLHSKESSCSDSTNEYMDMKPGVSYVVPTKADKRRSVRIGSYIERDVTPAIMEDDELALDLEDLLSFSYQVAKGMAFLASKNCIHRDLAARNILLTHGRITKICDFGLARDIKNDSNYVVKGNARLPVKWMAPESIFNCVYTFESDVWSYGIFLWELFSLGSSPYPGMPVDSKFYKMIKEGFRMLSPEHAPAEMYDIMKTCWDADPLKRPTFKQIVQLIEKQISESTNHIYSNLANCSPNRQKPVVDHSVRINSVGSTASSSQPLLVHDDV
Sequence of Fms (P07333 20-972): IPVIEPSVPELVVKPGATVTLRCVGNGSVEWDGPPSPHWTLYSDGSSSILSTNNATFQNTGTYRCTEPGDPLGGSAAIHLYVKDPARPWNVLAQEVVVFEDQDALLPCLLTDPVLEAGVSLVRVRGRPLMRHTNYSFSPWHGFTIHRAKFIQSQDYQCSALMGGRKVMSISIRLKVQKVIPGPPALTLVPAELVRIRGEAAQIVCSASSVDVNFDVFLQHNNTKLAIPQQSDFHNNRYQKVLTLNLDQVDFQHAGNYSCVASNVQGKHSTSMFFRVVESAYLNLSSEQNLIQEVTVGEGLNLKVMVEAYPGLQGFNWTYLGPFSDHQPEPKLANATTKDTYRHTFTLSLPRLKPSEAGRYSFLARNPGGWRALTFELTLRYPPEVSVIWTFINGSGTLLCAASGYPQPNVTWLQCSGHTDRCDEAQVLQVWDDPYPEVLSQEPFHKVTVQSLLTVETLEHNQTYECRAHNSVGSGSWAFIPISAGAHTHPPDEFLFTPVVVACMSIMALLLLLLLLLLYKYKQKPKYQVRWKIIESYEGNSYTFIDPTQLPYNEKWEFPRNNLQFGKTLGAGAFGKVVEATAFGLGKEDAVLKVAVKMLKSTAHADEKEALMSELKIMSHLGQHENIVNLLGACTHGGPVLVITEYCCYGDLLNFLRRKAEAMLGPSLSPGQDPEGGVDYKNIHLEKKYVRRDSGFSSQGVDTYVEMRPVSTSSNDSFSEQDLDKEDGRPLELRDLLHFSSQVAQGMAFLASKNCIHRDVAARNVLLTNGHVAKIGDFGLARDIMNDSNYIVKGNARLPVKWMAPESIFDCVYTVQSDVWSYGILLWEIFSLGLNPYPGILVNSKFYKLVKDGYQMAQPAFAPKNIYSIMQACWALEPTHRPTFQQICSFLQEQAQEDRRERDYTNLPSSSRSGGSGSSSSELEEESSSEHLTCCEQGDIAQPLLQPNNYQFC
Sequence of B-Raf V600E (P15056 whole entry V600E): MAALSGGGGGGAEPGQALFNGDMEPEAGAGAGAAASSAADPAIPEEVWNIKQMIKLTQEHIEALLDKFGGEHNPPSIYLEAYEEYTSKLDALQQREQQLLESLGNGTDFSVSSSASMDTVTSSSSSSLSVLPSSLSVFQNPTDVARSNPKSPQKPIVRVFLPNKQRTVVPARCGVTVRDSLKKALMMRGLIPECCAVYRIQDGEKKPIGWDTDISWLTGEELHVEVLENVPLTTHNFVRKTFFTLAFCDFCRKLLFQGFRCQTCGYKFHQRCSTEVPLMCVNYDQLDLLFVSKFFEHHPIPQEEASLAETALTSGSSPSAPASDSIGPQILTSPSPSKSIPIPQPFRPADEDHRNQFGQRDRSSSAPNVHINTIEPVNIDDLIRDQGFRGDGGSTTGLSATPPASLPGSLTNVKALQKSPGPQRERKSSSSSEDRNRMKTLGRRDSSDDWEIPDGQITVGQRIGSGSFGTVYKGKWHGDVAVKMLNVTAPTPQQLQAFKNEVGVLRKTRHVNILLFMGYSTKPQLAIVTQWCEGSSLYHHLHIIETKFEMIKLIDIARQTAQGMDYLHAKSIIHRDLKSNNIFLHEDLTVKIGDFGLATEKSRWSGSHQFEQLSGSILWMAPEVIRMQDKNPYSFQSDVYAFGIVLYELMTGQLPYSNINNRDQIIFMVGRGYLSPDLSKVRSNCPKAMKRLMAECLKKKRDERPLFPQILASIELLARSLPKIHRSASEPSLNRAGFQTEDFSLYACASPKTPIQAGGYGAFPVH

SMILES | IC50 (Btk) | IC50 (Fms) | IC50 (Kdr) | IC50 (Kit) | IC50 (Src) | IC50 (B-Raf V600E) | IC50 (C-Raf)
N#Cc1cnc2[nH]cc(C(=O)c3cccc(NS(=O)(=O)c4cccnc4)c3F)c2c1 [P-2086, Pyridine-3-sulfonic acid [3-(5-cyano-1H-pyrrolo[2,3-b]pyridine-3-carbonyl)-2-fluoro-phenyl]-amide] | ≤ 10 µM | – | – | – | – | – | –
CCCS(=O)(=O)Nc1ccc(F)c(C(=O)c2c[nH]c3ncc(-c4cnn(CC(C)C)c4)cc23)c1F [P-2157, Propane-1-sulfonic acid {2,4-difluoro-3-[5-(1-isobutyl-1H-pyrazol-4-yl)-1H-pyrrolo[2,3-b]pyridine-3-carbonyl]-phenyl}-amide] | ≤ 10 µM | ≤ 10 µM | ≤ 10 µM | ≤ 10 µM | ≤ 10 µM | ≤ 10 µM | –
CCS(=O)(=O)Nc1cccc(C(=O)c2c[nH]c3ncc(C#N)cc23)c1F [P-2410, Ethanesulfonic acid [3-(5-cyano-1H-pyrrolo[2,3-b]pyridine-3-carbonyl)-2-fluoro-phenyl]-amide] | ≤ 10 µM | – | – | – | – | ≤ 10 µM | ≤ 10 µM
CCCS(=O)(=O)Nc1ccc(F)c(C(=O)c2c[nH]c3ncc(-c4cnn(C)c4)cc23)c1Cl [P-2429, Propane-1-sulfonic acid {2-chloro-4-fluoro-3-[5-(1-methyl-1H-pyrazol-4-yl)-1H-pyrrolo[2,3-b]pyridine-3-carbonyl]-phenyl}-amide] | ≤ 10 µM | ≤ 10 µM | – | – | ≤ 10 µM | ≤ 10 µM | –
CCCS(=O)(=O)Nc1cccc(C(=O)c2c[nH]c3ncc(Cl)cc23)c1 [P-2449, Propane-1-sulfonic acid [3-(5-chloro-1H-pyrrolo[2,3-b]pyridine-3-carbonyl)-phenyl]-amide] | ≤ 10 µM | ≤ 10 µM | ≤ 10 µM | ≤ 10 µM | – | ≤ 10 µM | –
Cn1cc(-c2cnc3[nH]cc(C(=O)c4cccc(NS(=O)(=O)C5CC5)c4)c3c2)cn1 [P-2456, Cyclopropanesulfonic acid {3-[5-(1-methyl-1H-pyrazol-4-yl)-1H-pyrrolo[2,3-b]pyridine-3-carbonyl]-phenyl}-amide] | ≤ 10 µM | ≤ 10 µM | ≤ 10 µM | ≤ 10 µM | – | ≤ 10 µM | –
CN(C)S(=O)(=O)Nc1ccc(F)c(C(=O)c2c[nH]c3ncccc23)c1 [P-2469, N,N-dimethylamino-sulfonic acid [4-fluoro-3-(1H-pyrrolo[2,3-b]pyridine-3-carbonyl)-phenyl]-amide] | ≤ 10 µM | ≤ 10 µM | ≤ 10 µM | – | – | – | –

More lines, now with the values ahead:

IC50 (Btk) | IC50 (Fms) | IC50 (Kdr) | IC50 (Kit) | IC50 (Src) | IC50 (B-Raf V600E) | IC50 (C-Raf) | SMILES
≤ 10 µM | ≤ 10 µM | ≤ 10 µM | ≤ 10 µM | – | – | – | O=C(c1cc(NS(=O)(=O)c2ccc(F)cc2)ccc1F)c1c[nH]c2ncccc12 [P-2114, 4-Fluoro-N-[4-fluoro-3-(1H-pyrrolo[2,3-b]pyridine-3-carbonyl)-phenyl]-benzenesulfonamide]
≤ 10 µM | ≤ 10 µM | ≤ 10 µM | ≤ 10 µM | ≤ 10 µM | ≤ 10 µM | – | CCCS(=O)(=O)Nc1ccc(F)c(C(=O)c2c[nH]c3ncc(-c4c(C)nn(C)c4C)cc23)c1F [P-2158, Propane-1-sulfonic acid {2,4-difluoro-3-[5-(1,3,5-trimethyl-1H-pyrazol-4-yl)-1H-pyrrolo[2,3-b]pyridine-3-carbonyl]-phenyl}-amide]
≤ 10 µM | ≤ 10 µM | ≤ 10 µM | ≤ 10 µM | ≤ 10 µM | ≤ 10 µM | – | CCCS(=O)(=O)Nc1ccc(F)c(C(=O)c2c[nH]c3ncc(-c4ccc(F)c(OC)c4)cc23)c1F [P-2159, Propane-1-sulfonic acid {2,4-difluoro-3-[5-(4-fluoro-3-methoxy-phenyl)-1H-pyrrolo[2,3-b]pyridine-3-carbonyl]-phenyl}-amide]
≤ 10 µM | – | ≤ 10 µM | – | – | ≤ 10 µM | – | CCCS(=O)(=O)Nc1ccc(F)c(C(=O)c2c[nH]c3ncc(-c4ccc(F)c(C(F)(F)F)c4)cc23)c1F [P-2160, Propane-1-sulfonic acid {2,4-difluoro-3-[5-(4-fluoro-3-trifluoromethyl-phenyl)-1H-pyrrolo[2,3-b]pyridine-3-carbonyl]-phenyl}-amide]
